Usually Emax stands for the size of the effect at its maximum, as opposed to the concentration needed. By EC50 is commonly meant the concentration at which the effect is half-maximal.

Read-outs that look alike come from different tables or passages of the source. Some results are limits rather than exact numbers.

Here are results for 26 molecules from patent publication US20250230155A1 (Vanderbilt University, priority 2021, published 2025).

This assay has as its target T1, human mAChR M4 (Homo sapiens, UniProt P08173).
T1 construct: expressed in transfected cells
T1 sequence (P08173 1-479): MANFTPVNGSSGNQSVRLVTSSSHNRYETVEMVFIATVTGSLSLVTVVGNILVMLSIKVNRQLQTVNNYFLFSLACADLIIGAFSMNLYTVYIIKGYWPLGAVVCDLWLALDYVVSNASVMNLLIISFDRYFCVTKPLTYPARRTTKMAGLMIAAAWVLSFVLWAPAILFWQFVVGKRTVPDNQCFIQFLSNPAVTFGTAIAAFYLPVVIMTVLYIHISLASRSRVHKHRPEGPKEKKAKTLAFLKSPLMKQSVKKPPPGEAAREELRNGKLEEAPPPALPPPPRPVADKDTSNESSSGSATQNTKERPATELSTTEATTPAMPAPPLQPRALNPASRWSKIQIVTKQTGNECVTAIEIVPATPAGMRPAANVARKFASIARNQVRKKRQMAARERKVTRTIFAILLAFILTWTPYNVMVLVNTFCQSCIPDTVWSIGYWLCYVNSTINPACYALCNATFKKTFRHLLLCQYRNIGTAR
Put plainly: mAChR M4 cell-based functional assay (calcium mobilization, CHO-K1 hM4-Gqi5 cells). The conditions noted are these: for Emax at 30 µM: CHO-K1, % ACh maximum at 30 μM, human M4; for EC50: increase in the EC20 acetylcholine response, CHO-K1 hM4-Gqi5 cells; for Emax: CHO-K1. The essentials:
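Fluorescent calcium read-out (Fluo-4 AM, FDSS, 1 Hz) in hM4-Gqi5 CHO-K1 cells, 11-point 1:3 compound series. Agonism scored on compound addition, PAM activity as increase of the 144 s EC20 acetylcholine response, antagonism as decrease of the 230 s EC80 response; four-parameter logistic fits give EC50 and Emax.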
For orientation: Calcium flux is commonly read through the fluorescence of an indicator in the cells.

The mark [1] stands for this setting: positive allosteric modulator activity, read-out: Human M4 EC50.

For the molecule `Cc1cc(C(=O)NCc2nccs2)cnc1N1CCc2ncc(-c3cnn(C)c3)cc2C1` [compound 173, 5-methyl-6-[3-(1-methylpyrazol-4-yl)-7,8-dihydro-5H-1,6-naphthyridin-6-yl]-N-(thiazol-2-ylmethyl)pyridine-3-carboxamide], the Emax at 30 µM came to 95%. Also, the concentration for a half-maximal effect (EC50) under setting [1] is 77.3 nM.

As to `Cc1cc(C(=O)NCC2CCOCC2)cnc1N1CCc2ncccc2C1` [compound 160, 6-(7,8-dihydro-5H-1,6-naphthyridin-6-yl)-5-methyl-N-(tetrahydropyran-4-ylmethyl)pyridine-3-carboxamide], the maximal response (Emax) at 30 µM amounted to 51%. Also, under setting [1], the EC50 is not below 10000 nM.

For the molecule `Cc1nc(Cl)c(C)c(N2CCc3ncc(C4CC4)cc3C2)n1` [compound 225, 6-(6-chloro-2,5-dimethylpyrimidin-4-yl)-3-cyclopropyl-5,6,7,8-tetrahydro-1,6-naphthyridine], the maximal response (Emax) was 87%. The concentration for a half-maximal effect (EC50) (Human M4 EC50, positive allosteric modulator activity) came out at 57 nM.

On to `Cc1ccc(OCCOc2cnc3c(c2)CN(c2ncc(C#N)cc2C)CC3)cc1` [Example 431, 5-methyl-6-(3-(2-(p-tolyloxy)ethoxy)-7,8-dihydro-1,6-naphthyridin-6(5H)-yl)nicotinonitrile], for which the Emax at 30 µM is 47%. Moreover, under setting [1], the EC50 was not below 10000 nM.

Turning to `Cc1nc(C)c(C)c(N2CCc3ncc(Oc4ccccc4F)cc3C2)n1` [compound 260, 3-(2-fluorophenoxy)-6-(2,5,6-trimethylpyrimidin-4-yl)-5,6,7,8-tetrahydro-1,6-naphthyridine], the maximal effect (Emax) at 30 µM was 87%. Moreover, under setting [1], the EC50 came out at 154 nM.

As for `Cc1cc(C#N)cnc1N1CCc2ncc(N3CCCn4ccnc43)cc2C1` [Example 411, 6-(3-(6,7-dihydroimidazo[1,2-a]pyrimidin-8(5H)-yl)-7,8-dihydro-1,6-naphthyridin-6(5H)-yl)-5-methylnicotinonitrile], the maximal effect (Emax) at 30 µM was 47%. In addition, the 50% effective concentration (EC50) under setting [1] turned out to be 2250 nM.

For `Cc1cc(Nc2cnc3c(c2)CN(c2ncc(C#N)cc2C)CC3)c(F)cn1` [Example 616, 6-(3-((5-fluoro-2-methylpyridin-4-yl)amino)-7,8-dihydro-1,6-naphthyridin-6(5H)-yl)-5-methylnicotinonitrile], the maximal response (Emax) at 30 µM came to 95%. The EC50 under setting [1] turned out to be 4 nM.

Take `Cc1nc(Cl)c(C)c(N2CCc3ncc(Nc4ccnn4C)cc3C2)n1` [compound 212, 6-(6-chloro-2,5-dimethylpyrimidin-4-yl)-N-(1-methyl-1H-pyrazol-5-yl)-5,6,7,8-tetrahydro-1,6-naphthyridin-3-amine]: the maximal response (Emax) at 30 µM came to 98%. In addition, the EC50 under setting [1] was 65 nM.

With `COC1CN(C(=O)c2cc(C)c(N3CCc4ncc(N5CCCn6nccc65)cc4C3)nn2)C1` [Example 548, (6-(3-(6,7-dihydropyrazolo[1,5-a]pyrimidin-4(5H)-yl)-7,8-dihydro-1,6-naphthyridin-6(5H)-yl)-5-methylpyridazin-3-yl)(3-methoxyazetidin-1-yl)methanone], the maximum response (Emax) at 30 µM came out at 115%. Moreover, the EC50 under setting [1] was determined as 25 nM.

`Cc1cc(C#N)cnc1N1Cc2cc(C(F)(F)F)cnc2CC1C` (stereo not shown) [Example 366, 5-methyl-6-(7-methyl-3-(trifluoromethyl)-7,8-dihydro-1,6-naphthyridin-6(5H)-yl)nicotinonitrile]: the Emax at 30 µM stood at 96%. Under setting [1], the EC50 is 305 nM.

As for `Cc1cc(C(=O)N2CCc3cnccc3C2)nnc1N1CCc2ncc(C(F)(F)F)cc2C1` [Example 498, (3,4-dihydro-2,6-naphthyridin-2(1H)-yl)(5-methyl-6-(3-(trifluoromethyl)-7,8-dihydro-1,6-naphthyridin-6(5H)-yl)pyridazin-3-yl)methanone], the maximum response (Emax) at 30 µM amounted to 85%. The EC50 under setting [1] came out at 3170 nM.

Consider `Cc1cc(C(=O)NCc2ccncc2)cnc1N1CCc2ncc(-c3cccnc3F)cc2C1` [compound 178, 6-[3-(2-fluoro-3-pyridyl)-7,8-dihydro-5H-1,6-naphthyridin-6-yl]-5-methyl-N-(4-pyridylmethyl)pyridine-3-carboxamide], for which the maximum response (Emax) at 30 µM came out at 87%. For the same molecule, the concentration for a half-maximal effect (EC50) under setting [1] came out at 262 nM.

For the molecule `Cc1nc(C)c(C)c(N2CCc3ncc(-c4ccc(F)nc4)cc3C2)n1` [compound 229, 3-(6-fluoropyridin-3-yl)-6-(2,5,6-trimethylpyrimidin-4-yl)-5,6,7,8-tetrahydro-1,6-naphthyridine], the maximal response (Emax) at 30 µM is 59%. Besides, under setting [1], the 50% effective concentration (EC50) is 332 nM.

Turning to `Cc1c(C(=O)NCc2csc3ccccc23)nnc(N2CCc3ncc(C(F)(F)F)cc3C2)c1C` [Example 463, N-(benzo[b]thiophen-3-ylmethyl)-4,5-dimethyl-6-(3-(trifluoromethyl)-7,8-dihydro-1,6-naphthyridin-6(5H)-yl)pyridazine-3-carboxamide], the Emax at 30 µM stood at 101%. The EC50 under setting [1] was found to be 422 nM.

Take `Cc1cc(C(=O)NCc2cnc3c(c2)CCC3)cnc1N1CCc2ncccc2C1` [compound 155, N-(6,7-dihydro-5H-cyclopenta[b]pyridin-3-ylmethyl)-6-(7,8-dihydro-5H-1,6-naphthyridin-6-yl)-5-methyl-pyridine-3-carboxamide]: the Emax at 30 µM was determined as 63%. Besides, the half-maximal effective concentration (EC50) under setting [1] came out at 3910 nM.

On to `O=C1c2cc(Br)c(N3CCc4ncc(C(F)(F)F)cc4C3)nc2OCCN1Cc1ccccc1` [Example 591, 4-benzyl-7-bromo-8-(3-(trifluoromethyl)-7,8-dihydro-1,6-naphthyridin-6(5H)-yl)-3,4-dihydropyrido[3,2-f][1,4]oxazepin-5(2H)-one], for which the maximum response (Emax) at 30 µM came to 56%. In addition, under setting [1], the EC50 is 1990 nM.

As for `Cc1c(C#N)nnc(N2CCc3ncc(-c4ccn(CC5CC5)n4)cc3C2)c1C` [Example 10], the Emax came to 56%. For the same molecule, the EC50 under setting [1] worked out at 240 nM.

Take `CCCCn1nc(C)cc1Nc1cnc2c(c1)CN(c1ncc(C#N)cc1C)CC2` [Example 315, 6-(3-((1-butyl-3-methyl-1H-pyrazol-5-yl)amino)-7,8-dihydro-1,6-naphthyridin-6(5H)-yl)-5-methylnicotinonitrile]: the Emax at 30 µM is 47%. In addition, the EC50 under setting [1] is 961 nM.

For `Cc1cc(C(=O)NCc2ccncc2)nnc1N1CCc2ncc(N3CCCn4nccc43)cc2C1` [Example 490, 6-(3-(6,7-dihydropyrazolo[1,5-a]pyrimidin-4(5H)-yl)-7,8-dihydro-1,6-naphthyridin-6(5H)-yl)-5-methyl-N-(pyridin-4-ylmethyl)pyridazine-3-carboxamide], the Emax at 30 µM was determined as 100%. In addition, the 50% effective concentration (EC50) under setting [1] came out at 16 nM.

`Cc1cc(C#N)nnc1N1CCc2ncc(Nc3ccncc3F)cc2C1` [Example 598, 6-(3-((3-fluoropyridin-4-yl)amino)-7,8-dihydro-1,6-naphthyridin-6(5H)-yl)-5-methylpyridazine-3-carbonitrile]: the maximal effect (Emax) at 30 µM worked out at 98%. Moreover, under setting [1], the EC50 stood at 25 nM.

As to `COc1ccc(-c2cnc3c(c2)CN(c2ncc(C#N)cc2C)CC3)cn1` [compound 188, 6-[3-(6-methoxy-3-pyridyl)-7,8-dihydro-5H-1,6-naphthyridin-6-yl]-5-methyl-pyridine-3-carbonitrile], the maximum response (Emax) at 30 µM was found to be 106%. Under setting [1], the half-maximal effective concentration (EC50) was found to be 244 nM.

On to `Cc1cc(C#N)nnc1N1CCc2ncc(Nc3ccnn3C)cc2C1` [Example 311, 5-methyl-6-(3-((1-methyl-1H-pyrazol-5-yl)amino)-7,8-dihydro-1,6-naphthyridin-6(5H)-yl)pyridazine-3-carbonitrile], for which the maximal effect (Emax) at 30 µM was found to be 94%. For the same molecule, under setting [1], the EC50 worked out at 239 nM.

Turning to `Cc1cc(C(=O)NCc2ccc[nH]2)cnc1N1CCc2ncccc2C1` [compound 163, 6-(7,8-dihydro-5H-1,6-naphthyridin-6-yl)-5-methyl-N-(1H-pyrrol-2-ylmethyl)pyridine-3-carboxamide], the Emax at 30 µM stood at 65%. In addition, the EC50 under setting [1] was determined as 2660 nM.

Take `Cc1cc(C#N)cnc1N1CCc2ncc(OCCOC3CCCC3)cc2C1` [Example 433, 6-(3-(2-(cyclopentyloxy)ethoxy)-7,8-dihydro-1,6-naphthyridin-6(5H)-yl)-5-methylnicotinonitrile]: the Emax at 30 µM was 74%. Moreover, the concentration giving a half-maximal response (EC50) under setting [1] stood at 897 nM.

On to `Cc1cc(C(=O)NCc2cscn2)cnc1N1CCc2ncc(-c3ccc(C4CC4)nc3)cc2C1` [Example 484, 6-(3-(6-cyclopropylpyridin-3-yl)-7,8-dihydro-1,6-naphthyridin-6(5H)-yl)-5-methyl-N-(thiazol-4-ylmethyl)nicotinamide], for which the Emax at 30 µM was found to be 88%. For the same molecule, the EC50 under setting [1] was 176 nM.

On to `Cc1cc(C(=O)NC2(c3ccccn3)CC2)nnc1N1CCc2ncc(N3CCCn4nccc43)cc2C1` [Example 543, 6-(3-(6,7-dihydropyrazolo[1,5-a]pyrimidin-4(5H)-yl)-7,8-dihydro-1,6-naphthyridin-6(5H)-yl)-5-methyl-N-(1-(pyridin-2-yl)cyclopropyl)pyridazine-3-carboxamide], for which the maximal effect (Emax) at 30 µM worked out at 114%. The 50% effective concentration (EC50) under setting [1] is 47 nM.
